Test systems include UO-31 renal; IGROV1 ovarian; CAKI-1 renal; A549 NSCLC; DU-145 prostate; UACC-62 melanoma; CCRF-CEM leukemia; HOP-92 NSCLC; LOX IMVI melanoma; MALME-3M melanoma.
Assay in all cases: DTP human tumour cell line panel, 48 h

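Five concentrations, 48 hours, 96-well plates. GI50 is the concentration that inhibits growth by half. TGI denotes the concentration required for complete inhibition of growth.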 Bounds are passed on as bounds.

Broadly, the GI50 is the concentration at which growth is held to half of that of the control. By TGI is commonly meant the concentration at which net growth stops. Lower therefore signals more potent growth arrest. In the case of `CC(=C/c1ccccc1)/C=C1/NC(=S)N(/C=C2\C(=O)Oc3ccccc3C2=O)C1=O`, the GI50 in the assay with UO-31 renal is 91.7 µM; in the assay on IGROV1 ovarian, 86.7 µM; in the assay with CAKI-1 renal, 59.7 µM; in the assay on UACC-62 melanoma, 40.7 µM; in the assay on MALME-3M melanoma it was over 100 µM. Besides, the TGI in the assay on UO-31 renal, in the assay with IGROV1 ovarian, with CAKI-1 renal, in the assay with A549 NSCLC, in the assay on DU-145 prostate and in the assay on UACC-62 melanoma was over 100 µM in each case. For the same compound, the TGI with CCRF-CEM leukemia is over 100 µM; with HOP-92 NSCLC, over 65 µM; with LOX IMVI melanoma, over 100 µM; in the assay with MALME-3M melanoma it was over 100 µM.
`Cc1ccc([C@]2(C)CC[C@H](C)/C2=C\Br)c(O)c1`: the GI50 in the assay with UO-31 renal is 6.37 µM; with IGROV1 ovarian it was 3.07 µM; in the assay on CAKI-1 renal, 4.32 µM; with A549 NSCLC, 5.85 µM; in the assay on DU-145 prostate, 4.1 µM; in the assay on UACC-62 melanoma, 3.71 µM. In addition, the GI50 in the assay on CCRF-CEM leukemia was 6.77 µM; with HOP-92 NSCLC it was 10.4 µM; with LOX IMVI melanoma, 8.21 µM; with MALME-3M melanoma it was 3.88 µM. The TGI is 20.3 µM in the assay on UO-31 renal; 12.4 µM in the assay with IGROV1 ovarian; 16.6 µM in the assay on CAKI-1 renal; 19 µM with A549 NSCLC; 17.2 µM in the assay with DU-145 prostate; 14.1 µM in the assay on UACC-62 melanoma. In addition, the concentration for total growth inhibition (TGI) with CCRF-CEM leukemia turned out to be 35.6 µM; in the assay with HOP-92 NSCLC it was 25.2 µM; in the assay with LOX IMVI melanoma, 22.3 µM; in the assay on MALME-3M melanoma, 14.1 µM.
Regarding `O=C1C(Cl)=C(Nc2cccc(C(F)(F)F)c2)C(=O)N1Cc1ccc(Cl)cc1`, the GI50 in the assay with UO-31 renal is 1.11 µM; in the assay on IGROV1 ovarian, 2.76 µM; with CAKI-1 renal it was 0.289 µM; in the assay with A549 NSCLC, 1.13 µM; in the assay with DU-145 prostate, 1.13 µM; in the assay on CCRF-CEM leukemia, 0.59 µM. Further, the GI50 with HOP-92 NSCLC is 15 µM; in the assay with LOX IMVI melanoma, 0.241 µM; with MALME-3M melanoma, under 0.0488 µM. The TGI in the assay on UO-31 renal was 33.8 µM; in the assay on IGROV1 ovarian, over 48.5 µM; in the assay on CAKI-1 renal it was 16.4 µM; in the assay on A549 NSCLC it was 16.9 µM; in the assay on DU-145 prostate, 7.92 µM; in the assay with UACC-62 melanoma it was 1.26 µM. The TGI was over 100 µM in the assay with CCRF-CEM leukemia, 33.1 µM in the assay with HOP-92 NSCLC, 5.15 µM with LOX IMVI melanoma and 0.741 µM in the assay on MALME-3M melanoma.
With `O=c1oc2c(C(F)(F)F)cccc2cc1-c1csc(Nc2ccc(OCCF)cc2)n1`, the GI50 with UO-31 renal was 0.0785 µM; in the assay with IGROV1 ovarian it was 0.0757 µM; in the assay with CAKI-1 renal, 0.0521 µM; in the assay on A549 NSCLC, 0.0391 µM; with DU-145 prostate, 0.0462 µM; in the assay on UACC-62 melanoma it was 0.0507 µM. For the same compound, the concentration for 50% growth inhibition (GI50) in the assay on CCRF-CEM leukemia is 0.0353 µM; in the assay on HOP-92 NSCLC it was 0.0975 µM; in the assay with LOX IMVI melanoma, 0.0467 µM; in the assay with MALME-3M melanoma, 6.48 µM. The TGI is 22.5 µM in the assay with UO-31 renal; over 37 µM in the assay with IGROV1 ovarian; over 34.7 µM in the assay with CAKI-1 renal; 18.8 µM in the assay with A549 NSCLC; over 50.8 µM in the assay on DU-145 prostate; over 38.9 µM in the assay with UACC-62 melanoma. The TGI in the assay with CCRF-CEM leukemia was over 69.2 µM; in the assay with HOP-92 NSCLC it was 3.88 µM; in the assay with LOX IMVI melanoma, over 42.2 µM; in the assay on MALME-3M melanoma, over 91.7 µM.
With `O=C(O)c1cc2ccccc2c2c1C(=O)c1ccccc1-2`, the TGI in the assay on UO-31 renal, in the assay with IGROV1 ovarian, in the assay with CAKI-1 renal, in the assay with A549 NSCLC, with DU-145 prostate and with UACC-62 melanoma was over 100 µM each time. For the same compound, the total growth inhibition concentration (TGI) with CCRF-CEM leukemia, with HOP-92 NSCLC, in the assay with LOX IMVI melanoma and in the assay with MALME-3M melanoma was over 100 µM throughout.
`CCN(c1cc(C#CCN2CCOCC2)cc(C(=O)NCc2c(C)cc(C)[nH]c2=O)c1C)C1CCC(N(C)CCOC)CC1` (stereo not drawn): the GI50 with UO-31 renal, in the assay on IGROV1 ovarian, in the assay with CAKI-1 renal, with A549 NSCLC, in the assay on DU-145 prostate and in the assay on UACC-62 melanoma was over 100 µM in each case. Further, the GI50 in the assay on CCRF-CEM leukemia, in the assay on HOP-92 NSCLC, in the assay with LOX IMVI melanoma and in the assay on MALME-3M melanoma was over 100 µM each time. Besides, the TGI in the assay on UO-31 renal, in the assay on IGROV1 ovarian, with CAKI-1 renal, with A549 NSCLC, with DU-145 prostate and in the assay with UACC-62 melanoma was over 100 µM each time. Also, the TGI in the assay on CCRF-CEM leukemia, with HOP-92 NSCLC, in the assay on LOX IMVI melanoma and in the assay with MALME-3M melanoma was over 100 µM in each case.
Consider `CC(=O)c1nc2ccccc2n1CC(=O)c1cccc(Cl)c1`, for which the GI50 is 1.27 µM with UO-31 renal; 0.543 µM in the assay on IGROV1 ovarian; 2.78 µM in the assay on CAKI-1 renal; 2.67 µM with A549 NSCLC; 0.647 µM in the assay with DU-145 prostate; 0.416 µM in the assay on UACC-62 melanoma. The GI50 is 1.17 µM in the assay on CCRF-CEM leukemia, 0.59 µM in the assay on LOX IMVI melanoma and 0.517 µM in the assay with MALME-3M melanoma. Further, the TGI in the assay on UO-31 renal is over 100 µM; with IGROV1 ovarian it was over 100 µM; in the assay with CAKI-1 renal, over 20.1 µM; in the assay with A549 NSCLC, over 100 µM; in the assay with DU-145 prostate, over 31.8 µM; with UACC-62 melanoma it was 7.29 µM. Further, the TGI in the assay on CCRF-CEM leukemia is over 26.2 µM; with HOP-92 NSCLC, over 86.2 µM; with LOX IMVI melanoma, over 100 µM; with MALME-3M melanoma, over 100 µM.
Turning to `O=Nc1c(-c2c(O)[nH]c3ccc(Br)cc23)[nH]c2ccccc12`, the GI50 with UO-31 renal is 2.81 µM; in the assay with IGROV1 ovarian, 2.5 µM; in the assay on CAKI-1 renal it was 3.44 µM; in the assay on A549 NSCLC, 3.21 µM; with DU-145 prostate, 3.01 µM; with UACC-62 melanoma it was 4.96 µM. Besides, the GI50 with CCRF-CEM leukemia was 3.22 µM; in the assay with HOP-92 NSCLC, 6.25 µM; with LOX IMVI melanoma, 2.18 µM; with MALME-3M melanoma, 21.8 µM. The TGI with UO-31 renal was over 100 µM; in the assay on IGROV1 ovarian, over 100 µM; in the assay with CAKI-1 renal, over 100 µM; in the assay with A549 NSCLC, over 100 µM; with DU-145 prostate, 11.8 µM; in the assay on UACC-62 melanoma it was 15.1 µM. The TGI is 16.8 µM with CCRF-CEM leukemia, 45.1 µM in the assay with HOP-92 NSCLC, 11 µM in the assay with LOX IMVI melanoma and over 100 µM in the assay on MALME-3M melanoma.
Turning to `O=C1C(Cl)=C(Nc2cccc(O)c2)C(=O)N1Cc1ccc(Cl)cc1Cl`, the GI50 in the assay on UO-31 renal is 1.87 µM; in the assay on IGROV1 ovarian, 1.17 µM; in the assay with CAKI-1 renal, 13.4 µM; with A549 NSCLC, 8.33 µM; with DU-145 prostate, 11.3 µM; with UACC-62 melanoma it was 3.49 µM. Also, the GI50 with CCRF-CEM leukemia is 2.82 µM; with HOP-92 NSCLC, 12.2 µM; with LOX IMVI melanoma it was 4.06 µM; with MALME-3M melanoma, 1.18 µM. The TGI with UO-31 renal is 14.5 µM; in the assay with IGROV1 ovarian it was 13.8 µM; with CAKI-1 renal it was 26.7 µM; in the assay with A549 NSCLC it was 28.1 µM; in the assay on DU-145 prostate, 24.2 µM; with UACC-62 melanoma, 14.7 µM. For the same compound, the concentration for total growth inhibition (TGI) was 52.7 µM with CCRF-CEM leukemia, 26.9 µM in the assay on HOP-92 NSCLC, 15.5 µM in the assay on LOX IMVI melanoma and 14.9 µM with MALME-3M melanoma.
`O=C(NC(=S)Nc1cc(Cl)ccc1O)c1cccc(Br)c1`: the GI50 in the assay with UO-31 renal is 6.12 µM; in the assay on IGROV1 ovarian, 9.67 µM; with CAKI-1 renal it was 4.34 µM; in the assay on A549 NSCLC it was 6.19 µM; in the assay with DU-145 prostate, 12.3 µM; in the assay on UACC-62 melanoma it was 6.24 µM. Besides, the GI50 with CCRF-CEM leukemia was 3.68 µM; in the assay on HOP-92 NSCLC it was 10.5 µM; in the assay on LOX IMVI melanoma it was 15.8 µM; in the assay on MALME-3M melanoma, 9.33 µM. Further, the TGI is 56.3 µM in the assay on UO-31 renal; over 100 µM with IGROV1 ovarian; over 100 µM with CAKI-1 renal; over 100 µM with A549 NSCLC; over 100 µM in the assay with DU-145 prostate; over 100 µM with UACC-62 melanoma. Also, the TGI in the assay with CCRF-CEM leukemia was over 100 µM; with HOP-92 NSCLC it was 59.2 µM; with LOX IMVI melanoma it was over 100 µM; in the assay on MALME-3M melanoma, 55.4 µM.
For `Cc1ccc(Sc2cc3c(oc2=O)-c2ccccc2OC3O)cc1` (stereo not drawn), the GI50 in the assay with UO-31 renal was 21.7 µM; in the assay on IGROV1 ovarian, 22.4 µM; with CAKI-1 renal, 32 µM; with A549 NSCLC, 28.5 µM; with DU-145 prostate it was 21.8 µM; in the assay on UACC-62 melanoma, 21.2 µM. Also, the GI50 was 6.73 µM in the assay on CCRF-CEM leukemia, 23.4 µM with HOP-92 NSCLC, 18 µM with LOX IMVI melanoma and 25 µM in the assay on MALME-3M melanoma. Moreover, the TGI is 50.4 µM in the assay with UO-31 renal; 49.2 µM in the assay with IGROV1 ovarian; 78.1 µM with CAKI-1 renal; 74.8 µM in the assay on A549 NSCLC; 45.2 µM with DU-145 prostate; 49.8 µM with UACC-62 melanoma. The concentration for total growth inhibition (TGI) in the assay on CCRF-CEM leukemia worked out at 78.5 µM; with HOP-92 NSCLC it was 51.9 µM; in the assay on LOX IMVI melanoma it was 40 µM; in the assay on MALME-3M melanoma it was 49.2 µM.
On to `CC(C)=CCCC(C)C1=C(O)C(=O)C(C)=CC1=O` (stereo not drawn), for which the TGI with UO-31 renal was 21.3 µM; with IGROV1 ovarian, 32.8 µM; with CAKI-1 renal, 15.1 µM; in the assay on A549 NSCLC, over 100 µM; in the assay with DU-145 prostate, 33.3 µM; with UACC-62 melanoma, 27.9 µM. Moreover, the TGI is over 20.5 µM in the assay on CCRF-CEM leukemia, 3.67 µM in the assay with HOP-92 NSCLC, 15.1 µM in the assay on LOX IMVI melanoma and 23 µM with MALME-3M melanoma.

These data come from PubChem BioAssay (NCI).
